Source: PMC10384610, “Combining nonsense mutation suppression therapy with nonsense-mediated decay inhibition in neurofibromatosis type 1” (Molecular Therapy. Nucleic Acids, 2023)
Like-named read-outs stand apart in the source and are kept apart here.

Experiments:
NF1^NS/− Schwann cells = test: Western blot of neurofibromin and p-ERK in NF1^NS/− Schwann cells (LOH) treated with nonsense suppression drugs; format: cell-based, minipig; details: concentrations of Table S2, 24, 48 or 72 h
Procedure: (§1) Schwann cells were isolated as previously described.[9]^,[18] Sciatic nerve or cutaneous neurofibroma were biopsied from WT or NF1^R1947/+ minipigs and transported in Dulbecco’s Modified Eagle’s Medium (DMEM; Thermo) containing 10% fetal bovine serum (FBS; Thermo) and 1% Antibiotic/Antimycotic (AA; Thermo). In a laminar flow hood, specimens were rinsed in 70% ethanol and phosphate-buffered saline (PBS; VWR 16750-078) by briefly dipping into each solution 10 times. Tissues were minced and incubated at 37°C, 5% CO2 in dissociation media containing DMEM with 10% FBS, 1% AA, 1x collagenase A (Thermo), and 1x dispase II (Roche) overnight in a Petri dish, then transferred to a conical and centrifuged at 270 × g for 5 min. Cells were plated onto a poly-L-lysine (0.05 mg/mL) and laminin-coated (10 μg/mL) six-well plate and cultured in complete media containing DMEM with high-glucose (GIBCO) supplemented with 10% FBS (GIBCO), forskolin (2 μM) (Calbiochem), 1% N2 supplement (Thermo), recombinant human neuregulin-b1 (NRG1) (10 ng/mL) (R&D Systems), and 1% AA. Media was replaced every 2 days. Schwann cells were separated from contaminating fibroblasts via magnetic cell selection, as described.[9]^,[18] Purified Schwann cells were expanded and stored in liquid nitrogen at low passage and vials were thawed immediately prior to use in experiments to maintain low-passage cells.
(§2) For extraction of protein from cells, snap frozen pellets were briefly thawed on ice and resuspended in RIPA buffer (Sigma) containing protease (Sigma) and phosphatase inhibitors (Sigma), then vortexed at 2,000 rpm at 4°C for 20 min, then centrifuged at 4°C for 15 min at 20,000 × g. For extraction of protein from tissues, snap frozen tissues were thawed briefly on ice, then 50 to 80 mg of tissue was transferred to a 2-mL microtube containing ceramic homogenizers (Agilent Technologies) and homogenized using a Bead Blaster (Benchmark Scientific) at 4,260 rpm, 7 m/s linear speed, 3 cycles of 30 s at 4°C. Homogenates were centrifuged at 13,000 rpm for 3 min at 4°C, then supernatants were transferred to new tubes and sonicated at an amplitude of 20A for 10 s at 4°C, vortexed at 2,000 rpm at 4°C for 20 min, then centrifuged at 20,000 × g at 4°C for 15 min.
(§3) Protein lysates from cells or tissues were quantified using a BCA assay (Thermo). Twenty to 30 μg of protein was denatured at 95°C for 5 min and separated by electrophoresis using SDS on 1.5-mm NuPAGE 4–12% Bis-Tris protein gels (Thermo). Protein was transferred to Immun-Blot PVDF Membrane (Bio-Rad) overnight (16–20 h) at 18 V, 4°C. Membranes were cut according to target molecular weights and blocked at room temperature (RT) for 1 h using 5% blocking grade buffer (Bio-Rad) in TBST (Tris-buffered saline, 0.1% Tween 20) (Sigma). Membranes were incubated with primary antibody overnight at 4°C and washed with TBST three times for 5 min at RT, then incubated with horseradish peroxidase-conjugated secondary antibody for 1 h at RT and washed again as described above. All washes and incubations were performed on a rocking platform. Blots were developed with the WesternBright Quantum Kit (Advansta). Bands were imaged using the Li-Cor Odyssey Fc Imaging System, quantified by densitometry, and normalized to HSP90.
Ataluren (MedChem Express) was reconstituted in sterile dimethyl sulfoxide (DMSO) to a stock concentration of 10 mM and stored at −80°C. Cells were seeded in complete media at a density of 0.3 × 10^6 cells/plate in 10-cm plates. Media was changed 24 h later to complete media without AA and containing vehicle or drugs at indicated concentrations. Cells were harvested 24, 48, and 72 h after drug treatment and divided for protein and/or RNA extraction.

NF1^NS/+ Schwann cells = test: Western blot of neurofibromin and p-ERK in NF1^NS/+ Schwann cells treated with nonsense suppression drugs; format: cell-based, minipig; details: for neurofibromin increase in NF1^NS/+ Schwann cell cultures: multiple concentrations (Table S2), 24, 48 or 72 h, 3 biological replicates
Procedure: as §1, §2, §3
Ataluren (MedChem Express) was reconstituted in sterile dimethyl sulfoxide (DMSO) to a stock concentration of 10 mM and stored at −80°C. […]

in vivo = details: sc
Procedure: Human equivalent doses (HED) were determined by allometric scaling using the standard conversion coefficient (Km), where Km = 1.1 for minipig and HED determination. Consequently, a 7.5-mg/kg human equivalent dose was 8.25 mg/kg. The required volume of drug for each animal was then based on individual body weight and determined on the day of administration.
(§4) Tissue samples (skin, sciatic nerve, optic nerve, and cortex) were collected from each animal at the same approximate locations and divided for analysis.
Plasma isolations were performed as described in a previous study.[10] Briefly, serial whole blood samples (1.5 mL) were collected from the jugular vein into lithium heparin vacutainer tubes. Samples were immediately transferred to a 1.7-mL microfuge tube and centrifuged at 2,000 × g for 10 min at 4°C. Supernatant (plasma) was transferred to a cryovial and stored at −80°C until analysis. […] Assay analytical measurement ranged from 0.2 to 12 mg/L, and samples with results higher than 12 mg/L were diluted appropriately and re-analyzed. Within-run precision is 0.3% CV, between-day precision is 0.4% CV, and accuracy is 99.8% (correlation coefficient). For each tissue type (skin, sciatic nerve, optic nerve, and cerebral cortex), samples were analyzed commercially using liquid chromatography with tandem mass spectrometry (LC-MS/MS; BioAgilytix, San Diego, CA). […] Standard curves and quality controls were prepared with untreated tissues. Tissues were prepared with a homogenization solution containing collagenase. […] The LC-MS/MS system consisted of a Waters Acquity UPLC (Milford, MA) coupled with a Waters Xevo TQ-S Micro Triple Quad mass spectrometer (Milford, MA). Mass transition data were acquired in electrospray positive ion (ESI^+) mode and captured using MassLynx 4.1 (Waters, Milford, MA).
Pharmacokinetic parameters and measures of systemic exposure included area under the concentration-time curve (AUC; linear up, log down), maximum concentration (Cmax), time to Cmax (Tmax), and half-life (t1/2).

[1] = NF1 minipig (NF1^R1947*/+), in vivo, 30 min
Procedure: Tissues were prepared with a homogenization solution containing collagenase.

[2] = tested on: neurofibromin and p-ERK protein levels; test: Pharmacodynamics: western blot of neurofibromin and p-ERK in NF1 minipig tissues; format: in vivo; details: treated (n = 5) vs untreated controls (n = 4), sc 8.25 mg/kg daily 14 days
From the text: as §4

[3] = Tolerability and renal parameters in NF1 minipigs; format: in vivo, minipig; details: sc 8.25 mg/kg once daily for 14 days
[4] = murine models of DMD and CF, subcutaneous once daily 34 mg/kg, suppresses PTCs; cited from earlier work
[5] = human patients with DMD or CF, once daily intravenous infusion 7.5–10 mg/kg; cited from earlier work
[6] = parameters: method as in PMID 33978635; details: NF1 minipigs compared with WT minipigs; cited from earlier work
[7] = tested on: NF1^R1947∗ mutation dual luciferase reporter in NF1^NS/− Schwann cells; test: Dual luciferase reporter (DLR) readthrough assay in minipig Schwann cells; format: cell-based; details: minipig NF1^NS/− cNF Schwann cells, 48 h, normalized to Renilla
From the text: (§5) The NF1^R1497X DLR plasmid was kindly provided by David Bedwell at University of Alabama. The Renilla-NF1-R1947X-Firefly insert contains 30 nucleotides surrounding the premature termination codon in NF1-R1947X inserted between the Renilla and Firefly genes. The 30-base pair readthrough cassette contains NF1^R1497X (G TCGACGGATGCCAAATGACAAAGAGTTGGATCC). Plasmids were amplified in DH5a E. coli using ampicillin selection and purified using a Qiagen miniprep kit, according to the manufacturer’s protocol. To produce stable cell cultures, we used Gateway cloning to transfer the DLR insert to a hygromycin-resistant PiggyBac Sleeping Beauty (PBSB) transposon vector. Briefly, a GBlock containing the DLR insert sequence and attB sites was cloned into the pDONR221 vector using BP clonase to produce pENTR-Renilla-NF1-R1947X-Firefly. This was cloned into the PBSB vector using LR clonase to produce pPBSB-CG-Renilla-NF1-R1947X-Firefly-PGK-Hygro, which was confirmed by DNA sequencing. Schwann cells were grown to 80% confluency and transfected with the PBSB transposon and PB7 (PiggyBac transposase) (5 μg each/ 1million cells) using the Neon electroporation system (Invitrogen #MPK10096). […] The DLR assay system (Promega) was used to detect readthrough, according to the manufacturer’s instructions. Luminescence was measured using the Cytation 5 plate reader. […]

[8] = tested on: NF1^R1947∗ mutation dual luciferase reporter in iPNF95.6 cells; test: Dual luciferase reporter (DLR) readthrough assay in human Schwann cells; format: cell-based; details: human Schwann cells iPNF95.6, 48 h, normalized to Renilla
From the text: as §5

[9] = NF1^NS/+ Schwann cells, 100 μg/mL, 48 h

O=C(O)c1cccc(-c2noc(-c3ccccc3F)n2)c1 [ataluren]
nonsense suppression through expression of neurofibromin (NF1^NS/− Schwann cells): no indication of nonsense suppression through expression of neurofibromin | reduction in p-ERK (NF1^NS/− Schwann cells): not a corresponding reduction in p-ERK

CNC(C)C1CCC(N)C(OC2C(N)CC(N)C(OC3OCC(C)(O)C(NC)C3O)C2O)O1 (centres unmarked) [gentamicin]
neurofibromin, dose trend (NF1^NS/+ Schwann cells; NF1^NS/+ Schwann cells, 250 or 500 μg/mL, 48 h, not replicated in other cultures): linear increase in neurofibromin at 48 h in one replicate | neurofibromin increase in NF1^NS/+ Schwann cell cultures (NF1^NS/+ Schwann cells): not consistent between replicates or did not exhibit a dose- or time-dependent increase | nonsense suppression through expression of neurofibromin (NF1^NS/− Schwann cells): no indication of nonsense suppression through expression of neurofibromin | reduction in p-ERK (NF1^NS/− Schwann cells): not a corresponding reduction in p-ERK | Cmax (in vivo; NF1 minipig, 8.25 mg/kg, Cmax): 38000 ng/mL | half-life (in vivo; NF1 minipig, 8.25 mg/kg, t1/2): 1.82 h | Cmax (in vivo; Ossabaw, minipig, 8.25 mg/kg, mean Cmax): 38000 ng/mL | Cmax (in vivo; Ossabaw, minipig, 8.25 mg/kg, target Cmax reached): 40000 ng/mL | changes in PK parameters after 14 days (in vivo; minipig): no significant changes in PK parameters | difference of mean tissue concentrations from cortex (lowest) to sciatic nerve (highest) [1]: up to 8 fold | neurofibromin protein expression in other tissues (cortex, sciatic nerve) [2]: no significant change | p-ERK downregulation in tissues (optic nerve, cortex, sciatic nerve, skin) [2]: not significant in any tissues | neurofibromin protein expression in optic nerve tissue ([2]; p = 0.01): higher | tolerability, renal parameters including serum creatinine and blood urea nitrogen [3]: well tolerated with no significant changes in renal parameters | peak plasma concentration (Cmax) [4]: 40000 to 60000 ng/mL | Cmax [5]: 20000 to 40000 ng/mL

Cn1cnc2c(F)c(Nc3ccc(Br)cc3Cl)c(C(=O)NOCCO)cc21 [selumetinib]
concentration in the brain [6]: reaches higher concentrations in the brain of NF1 minipigs compared with WT minipigs

CN[C@@H]1[C@@H](O)[C@@H](O[C@@H]2[C@@H](O)[C@H](O[C@H]3O[C@H]([C@@H](C)O)[C@@H](O)[C@H](O)[C@H]3N)[C@@H](N)C[C@H]2N)OC[C@]1(C)O [G418]
neurofibromin (NF1^NS/+ Schwann cells; [9]): increased in all three replicates | p-ERK (NF1^NS/+ Schwann cells; [9]): paradoxically increased | neurofibromin increase in NF1^NS/+ Schwann cell cultures (NF1^NS/+ Schwann cells): not consistent between replicates or did not exhibit a dose- or time-dependent increase | nonsense suppression through expression of neurofibromin (NF1^NS/− Schwann cells): no indication of nonsense suppression through expression of neurofibromin | reduction in p-ERK (NF1^NS/− Schwann cells): not a corresponding reduction in p-ERK | firefly luciferase activity compared with vehicle-treated cells [7]: significant and dose-dependent increase | firefly luciferase activity compared with vehicle-treated cells [8]: significant and dose-dependent increase
